Measured values taken from US20080248511A1, “METHODS TO QUENCH LIGHT FROM OPTICAL REACTIONS” (priority 2007, published 2008).
Read-outs that look alike come from different tables or passages of the source.

Assays:
Type in all cases: biochemical
firefly luciferase [1] = target: T1, firefly luciferase (Photinus pyralis, UniProt P08659); assay: Quaternary ammonium/phosphonium detergent screen, firefly luciferase (Example 5); details: Tergitol NP-9 present
Description: (§1) Each detergent was added at 0.2% to a reagent solution containing 50 mM Tricine pH 8.3, 3.5 mM MgSO4, 1 mM CDTA, 30 mM thiourea and 0.5% Tergitol NP-9. This solution or one not containing a detergent inhibitor was used to resuspend the Bright-Glo™ luciferin substrate (Promega).
(§2) The luciferase reactions were initiated by adding 100 μl of the firefly luciferase or Renilla luciferase enzyme solutions to 100 μl of reagent solution. The reactions were performed as described above. […] The detergent concentrations listed refer to the final concentration in the reaction.

Renilla luciferase [2] = target: T2, Renilla luciferase (Renilla reniformis, UniProt P27652); assay: Quaternary ammonium/phosphonium detergent screen, Renilla luciferase (Example 5); details: for remaining activity at 0.1 % / Retained Renilla Luciferase Luminescence (%): Tergitol NP-9 present
T2 sequence (P27652 1-311): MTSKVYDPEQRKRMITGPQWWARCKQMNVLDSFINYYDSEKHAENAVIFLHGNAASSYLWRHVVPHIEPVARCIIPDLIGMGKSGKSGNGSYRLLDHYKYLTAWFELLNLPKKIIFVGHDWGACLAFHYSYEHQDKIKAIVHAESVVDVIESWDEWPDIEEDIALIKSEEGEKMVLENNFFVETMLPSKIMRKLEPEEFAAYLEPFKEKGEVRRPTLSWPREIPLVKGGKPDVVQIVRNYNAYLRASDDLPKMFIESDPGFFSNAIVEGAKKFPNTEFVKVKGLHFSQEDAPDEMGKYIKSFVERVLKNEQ
Description: as §1, §2

firefly luciferase [3] = target: T1, firefly luciferase; assay: Quaternary ammonium/phosphonium detergent screen, firefly luciferase (Example 5); details: final conc. 0.03% detergent, Tergitol NP-9 present; for remaining activity at 0.03 %: read-out: Retained Firefly Luciferase Luminescence (%)
Renilla luciferase [4] = target: T2, Renilla luciferase; assay: Quaternary ammonium/phosphonium detergent screen, Renilla luciferase (Example 5); details: final conc. 0.03% detergent; for remaining activity at 0.03 % / Retained Renilla Luciferase Luminescence (%): Tergitol NP-9 present; for remaining activity at 0.03 %: read-out: Retained Renilla Luciferase Luminescence (%)
Renilla luciferase [5] = target: T2, Renilla luciferase; assay: biochemical; details: 0.5% detergent in Renilla Luciferase Assay Reagent; read-out: Retained Renilla Luciferase Luminescence (%)
Description: The retained luminescence for each luciferase was calculated by dividing the luminescence in the presence of the detergent by the luminescence in the absence of the test detergent. The selectivity value for each of the test detergents was determined by dividing the retained firefly luciferase luminescence by the retained Renilla luciferase luminescence.
A set of detergents (Table 2; Sigma-Aldrich) was added at 0.5% (from a 5% or 10% stock solution) to either Luciferase Assay Reagent (Promega) or Renilla Luciferase Assay Reagent (Promega) and allowed to equilibrate at room temperature.
The firefly luciferase and Renilla luciferase enzymes were diluted as follows. Firefly luciferase was diluted to 14 ng/ml in Phosphate Buffered Saline (PBS) containing 0.1% of the protein carrier Prionex® (Pentapharm). Renilla luciferase was diluted to 10 ng/ml in 1× Renilla Luciferase Lysis Buffer (Promega) containing 0.1% Prionex®. The Renilla Luciferase Lysis Buffer […] detergent micelles when using the Renilla Luciferase Assay Reagent. In the absence of other detergents, this prevents sequestering of coelenterazine which inhibits Renilla luciferase-mediated luminescence.
The luciferase reactions were initiated by adding 40 μl of either the firefly or Renilla luciferase enzyme solution to 200 μl of the appropriate reagent solution (firefly luciferase enzyme solution+firefly luciferase reagent solution or Renilla luciferase enzyme solution+Renilla luciferase reagent solution, respectively). The reactions were performed in an opaque white, 96-well plate and luminescence was measured for 0.5 seconds per well using a Turner BioSystems Veritas™ Microplate luminometer. The retained firefly luciferase and Renilla luciferase luminescence, as well as the selectivity values for each detergent, were calculated (Table 2).

Renilla luciferase [6] = target: T2, Renilla luciferase; assay: Detergent titration with Tergitol NP-9, digitonin or no lysing agent, Renilla luciferase (Example 4); details: for remaining activity at 0.0005 % / remaining activity at 0.005 % / remaining activity at 0.05 %: read-out: Relative Renilla Luc Intensity
Description: Renilla luciferase-mediated luminescence was measured from samples containing 9.6 mM phosphate buffer pH 6.8, 2.7 mM KCl, 137 mM NaCl (in PBS), 0.1% gelatin, 75 nM coelentrazine (Promega) and 10.2 ng/ml Renilla luciferase. Reactions contained either no lysing agent, 0.5% Tergitol NP-9 or 20 μg/ml digitonin. The detergents to be tested were titrated to 0.05%, 0.005% or 0.0005% in the reactions prior to the addition of the Renilla luciferase. Renilla luciferase-mediated luminescence was measured as described herein.

firefly luciferase [7] = target: T1, firefly luciferase; assay: Detergent titration with Tergitol NP-9, digitonin or no lysing agent, firefly luciferase (Example 4); details: read-out: Relative Firefly Luc Intensity; for remaining activity at 0.0005 %: 0.0005% detergent; for remaining activity at 0.005 %: 0.0050% detergent; for remaining activity at 0.05 %: 0.0500% detergent
Description: For measurement of firefly luciferase-mediated luminescence, a solution containing 110 mM HEPES pH 7.5, 8 mM MgSO4, 0.05% gelatin, 7.35 ng/ml firefly luciferase (QuantiLum® Luciferase; Promega) and the content of the Steady-Glo Luciferase Substrate (Promega) at the equivalent of 1×, As in the Renilla luciferase reactions, reactions contained either no lysing agent, 0.5% Tergitol NP-9 or 20 μg/ml digitonin. The same detergents were titrated as described above and firefly luciferase-mediated luminescence was measured.

[8] = final conc. 0.10% detergent, read-out: Retained Firefly Luciferase Luminescence (%)
[9] = final conc. 0.10% detergent, read-out: Retained Renilla Luciferase Luminescence (%)
[10] = read-out: Retained Firefly Luciferase Luminescence (%), final conc. 0.10% detergent
[11] = read-out: Retained Renilla Luciferase Luminescence (%), final conc. 0.10% detergent

T1 sequence (P08659 whole entry): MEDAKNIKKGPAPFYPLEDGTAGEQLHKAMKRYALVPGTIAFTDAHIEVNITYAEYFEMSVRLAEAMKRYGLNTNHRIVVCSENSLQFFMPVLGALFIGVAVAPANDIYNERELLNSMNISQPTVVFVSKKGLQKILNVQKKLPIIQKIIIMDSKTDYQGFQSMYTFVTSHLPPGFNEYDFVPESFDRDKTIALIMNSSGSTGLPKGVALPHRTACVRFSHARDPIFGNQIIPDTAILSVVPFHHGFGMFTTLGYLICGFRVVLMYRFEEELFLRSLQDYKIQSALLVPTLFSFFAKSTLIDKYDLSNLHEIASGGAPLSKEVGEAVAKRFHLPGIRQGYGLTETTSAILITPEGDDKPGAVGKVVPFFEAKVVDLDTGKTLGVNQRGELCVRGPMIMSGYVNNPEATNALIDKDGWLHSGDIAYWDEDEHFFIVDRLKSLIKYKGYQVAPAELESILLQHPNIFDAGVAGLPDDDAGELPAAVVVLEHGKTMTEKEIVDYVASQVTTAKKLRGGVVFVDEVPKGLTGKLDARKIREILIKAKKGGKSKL

## CCCCCCCCCCCCCCCC[N+](C)(C)Cc1ccccc1.[Cl-] [Benzyldimethylhexadecylammonium chloride]
Firefly luciferase [1]; [8]
  remaining activity at 0.1 %: 97%
Renilla luciferase [2]; final conc. 0.10% detergent
  Selectivity Value: 32.2
Renilla luciferase [2]; [9]
  remaining activity at 0.1 %: 3%
Firefly luciferase [3]
  remaining activity at 0.03 %: 100%
Renilla luciferase [4]
  Selectivity Value: 2.1
  remaining activity at 0.03 %: 47%

## C[P+](CCCC(=O)O)(c1ccccc1)c1ccccc1.[Cl-] [(3-Carboxyl-propyl)-methyl-diphenyl-phosphonium chloride]
Firefly luciferase [1]; [10]
  remaining activity at 0.1 %: 102%
Renilla luciferase [2]; final conc. 0.10% detergent
  Selectivity Value: 0.9
Renilla luciferase [2]; [11]
  remaining activity at 0.1 %: 89%
Firefly luciferase [3]
  remaining activity at 0.03 %: 98%
Renilla luciferase [4]
  Selectivity Value: 1.0
  remaining activity at 0.03 %: 99%

## C[N+](C)(Cc1ccccc1)c1ccccc1.[Br-] [Benzyldimethylphenylammonium bromide]
Firefly luciferase [1]; final conc. 0.10% detergent
  Retained Firefly Luciferase Luminescence (%): 107%
Renilla luciferase [2]; final conc. 0.10% detergent
  Selectivity Value: 1.3
  Retained Renilla Luciferase Luminescence (%): 81%
Firefly luciferase [3]
  Retained Firefly Luciferase Luminescence (%): 101%
Renilla luciferase [4]
  Selectivity Value: 1.3
  Retained Renilla Luciferase Luminescence (%): 78%

## C=C(C)[P+](C)(c1ccccc1)c1ccccc1.[I-] [Isopropenylmethyldiphenylphosphonium iodide]
Firefly luciferase [1]; [8]
  remaining activity at 0.1 %: 109%
Renilla luciferase [2]; final conc. 0.10% detergent
  Selectivity Value: 2.1
Renilla luciferase [2]; [9]
  remaining activity at 0.1 %: 51%
Firefly luciferase [3]
  remaining activity at 0.03 %: 95%
Renilla luciferase [4]
  Selectivity Value: 1.2
  remaining activity at 0.03 %: 82%

## C[N+](C)(C)Cc1ccccc1.[I-] [Bezyltrimethylammonium iodide]
Firefly luciferase [1]; final conc. 0.10% detergent
  Retained Firefly Luciferase Luminescence (%): 62%
Renilla luciferase [2]; final conc. 0.10% detergent
  Selectivity Value: 0.6
  Retained Renilla Luciferase Luminescence (%): 97%
Firefly luciferase [3]
  Retained Firefly Luciferase Luminescence (%): 76%
Renilla luciferase [4]
  Selectivity Value: 0.8
  Retained Renilla Luciferase Luminescence (%): 93%

## CCCCCCCCCCCCCCCC[N+](C)(C)C.[Cl-] [Cetyltrimethylammonium chloride]
Renilla luciferase [5]
  remaining activity at 0.5 %: 5.23%
Renilla luciferase [6]; 0.0005% detergent, Dig
  Selective Inhibition (Ff Luc Inh/Ren Luc Inh): 12
  remaining activity at 0.0005 %: 14%
Renilla luciferase [6]; 0.0005% detergent, Terg
  Selective Inhibition (Ff Luc Inh/Ren Luc Inh): 1.0
  remaining activity at 0.0005 %: 95%
Renilla luciferase [6]; 0.0005% detergent, Water
  Selective Inhibition (Ff Luc Inh/Ren Luc Inh): 13
  remaining activity at 0.0005 %: 13%
Renilla luciferase [6]; 0.0050% detergent, Dig
  Selective Inhibition (Ff Luc Inh/Ren Luc Inh): 2829
  remaining activity at 0.005 %: 0.02%
Renilla luciferase [6]; 0.0050% detergent, Terg
  Selective Inhibition (Ff Luc Inh/Ren Luc Inh): 1.3
  remaining activity at 0.005 %: 71%
Renilla luciferase [6]; 0.0050% detergent, Water
  Selective Inhibition (Ff Luc Inh/Ren Luc Inh): 3848
  remaining activity at 0.005 %: 0.02%
Renilla luciferase [6]; 0.0500% (w:v) detergent, Terg (0.5% Tergitol NP-9)
  remaining activity at 0.05 %: 6%
Renilla luciferase [6]; 0.0500% detergent, Dig
  Selective Inhibition (Ff Luc Inh/Ren Luc Inh): 1395
Renilla luciferase [6]; 0.0500% detergent, Dig (20 μg/ml digitonin)
  remaining activity at 0.05 %: 0.02%
Renilla luciferase [6]; 0.0500% detergent, Terg
  Selective Inhibition (Ff Luc Inh/Ren Luc Inh): 6
Renilla luciferase [6]; 0.0500% detergent, Water
  Selective Inhibition (Ff Luc Inh/Ren Luc Inh): 1611
Renilla luciferase [6]; 0.0500% detergent, Water (no lysing agent)
  remaining activity at 0.05 %: 0.02%
Firefly luciferase [7]; Dig
  remaining activity at 0.0005 %: 164%
  remaining activity at 0.005 %: 65%
Firefly luciferase [7]; Terg
  remaining activity at 0.0005 %: 98%
  remaining activity at 0.005 %: 94%
Firefly luciferase [7]; Water
  remaining activity at 0.0005 %: 179%
  remaining activity at 0.005 %: 70%
Firefly luciferase [7]; Dig (20 μg/ml digitonin)
  remaining activity at 0.05 %: 29%
Firefly luciferase [7]; Terg (0.5% Tergitol NP-9)
  remaining activity at 0.05 %: 38%
Firefly luciferase [7]; Water (no lysing agent)
  remaining activity at 0.05 %: 31%

## CC[N+](CC)(CC)Cc1ccccc1.[Br-] [Benzyltriethylammonium bromide]
Firefly luciferase [1]; [10]
  remaining activity at 0.1 %: 100%
Renilla luciferase [2]; final conc. 0.10% detergent
  Selectivity Value: 0.9
Renilla luciferase [2]; [11]
  remaining activity at 0.1 %: 87%
Firefly luciferase [3]
  remaining activity at 0.03 %: 97%
Renilla luciferase [4]
  Selectivity Value: 1.0
  remaining activity at 0.03 %: 95%

## CCCCCCCCCCC(C(=O)c1ccc(OC)cc1)[N+](C)(C)C.[Br-] (stereo not shown) [(1-(4-methoxybenzoyl)-undecyl)-trimethylammonium bromide]
Firefly luciferase [1]; [8]
  remaining activity at 0.1 %: 104%
Renilla luciferase [2]; final conc. 0.10% detergent
  Selectivity Value: 52
Renilla luciferase [2]; [9]
  remaining activity at 0.1 %: 2%
Firefly luciferase [3]
  remaining activity at 0.03 %: 106%
Renilla luciferase [4]
  Selectivity Value: 5.3
  remaining activity at 0.03 %: 20%

## C[P+](C)(Cc1ccc([N+](=O)[O-])cc1)c1ccccc1.[Br-] [Dimethyl(4-nitrobenzyl)phenylphosphonium bromide]
Firefly luciferase [1]; [8]
  remaining activity at 0.1 %: 106%
Renilla luciferase [2]; final conc. 0.10% detergent
  Selectivity Value: 2.2
Renilla luciferase [2]; [9]
  remaining activity at 0.1 %: 49%
Firefly luciferase [3]
  remaining activity at 0.03 %: 99%
Renilla luciferase [4]
  Selectivity Value: 1.3
  remaining activity at 0.03 %: 78%

## CCCCCCCCCC[N+](C)(C)Cc1ccccc1.[Cl-] [Benzyldimethyldecylammonium chloride]
Firefly luciferase [1]; [8]
  remaining activity at 0.1 %: 112%
Renilla luciferase [2]; final conc. 0.10% detergent
  Selectivity Value: 112
Renilla luciferase [2]; [9]
  remaining activity at 0.1 %: 1%
Firefly luciferase [3]
  remaining activity at 0.03 %: 114%
Renilla luciferase [4]
  Selectivity Value: 6.3
  remaining activity at 0.03 %: 18%

## C[N+](C)(Cc1ccccc1)c1ccccc1.[Cl-] [Benzyldimethylphenylammonium chloride]
Firefly luciferase [1]; final conc. 0.10% detergent
  Retained Firefly Luciferase Luminescence (%): 55%
Renilla luciferase [2]; final conc. 0.10% detergent
  Selectivity Value: 4.6
  Retained Renilla Luciferase Luminescence (%): 12%
Firefly luciferase [3]
  remaining activity at 0.03 %: 82%
Renilla luciferase [4]
  Selectivity Value: 2.2
  Retained Renilla Luciferase Luminescence (%): 38%

## C=CCCC[P+](c1ccccc1)(c1ccccc1)c1ccccc1.[Br-] [(4-Penten-1-yl)triphenylphosphonium bromide]
Firefly luciferase [1]; [8]
  remaining activity at 0.1 %: 102%
Renilla luciferase [2]; final conc. 0.10% detergent
  Selectivity Value: 4.9
Renilla luciferase [2]; [9]
  remaining activity at 0.1 %: 21%
Firefly luciferase [3]
  remaining activity at 0.03 %: 98%
Renilla luciferase [4]
  Selectivity Value: 1.7
  remaining activity at 0.03 %: 57%

## CC=CC[P+](Cc1ccccc1)(c1ccccc1)c1ccccc1.[Br-] [Benzyl-but-2-enyl-diphenyl-phosphonium bromide]
Firefly luciferase [1]; [8]
  remaining activity at 0.1 %: 109%
Renilla luciferase [2]; final conc. 0.10% detergent
  Selectivity Value: 7.8
Renilla luciferase [2]; [9]
  remaining activity at 0.1 %: 14%
Firefly luciferase [3]
  remaining activity at 0.03 %: 106%
Renilla luciferase [4]
  Selectivity Value: 2.1
  remaining activity at 0.03 %: 50%
